Results as given in patent publication US12589229B2, “Macroporous solid hard microneedles with embedded particulate drugs” (priority 2021, dated 2026).
Where a name gives a salt, the structure may show the parent alone.

Assays:
CD20+ cells = experiment: In vitro whole blood assay with RTX-loaded microneedle patches, flow cytometry; format: cell-based, human
Protocol: To evaluate the effectiveness of the treatment being delivered through microneedles an in vitro model, a whole blood assay was performed using Rituximab (RTX) as the drug. Rituximab is a chimeric monoclonal antibody against the protein CD20, which is primarily found on the surface of immune system B cells. When it binds to this protein it triggers cell death via Complement-Dependent Cytotoxicity (CDC). RTX is a good model to evaluate the mAb delivery mechanism mainly because of its clear pharmacodynamics outcome, the depletion of CD20+B-Cell in whole blood. Microneedle patches with five different amounts of RTX and a constant polymer-to-drug ratio were incubated in freshly collected human blood in a 24-well plate. Flow cytometry was used to quantify CD20+ and CD19+ cells in each well. […] CD20+ cells are present in samples (a) through (c) on the left but absent from samples (d) through (f) on the right. The conditions are as follows: (a) Buffy coat and serum without microneedle (MN) exposure and prior to incubation; (b) Blood without MN exposure and after 4 h incubation; (c) Blood with exposure to an inert MN after incubation; (d) Blood after incubation with one MN (20 μg RTX); (e) blood after incubation with five MNs (100 μg RTX); and (f) blood after incubation with 200 MNs (4 mg RTX). […]

circulating B cells = experiment: In vivo primate study, rituximab IV versus microneedle transdermal delivery, circulating B cells by flow cytometry; design: species or system African green monkeys; conditions: IV dosing, first week
Protocol: An in vivo primate study was performed to compare the systemic pharmacodynamic effect of rituximab (RTX) following intravenous (IV) delivery versus microneedle-mediated, transdermal (TD) delivery in African green monkeys. […] The pharmacodynamic effect was quantified by the measurement of circulating B cells by flow cytometry (all these graphs are generated by flow cytometry), employing rituximab as a tool compound to assess the ability of a novel microneedle formulation and delivery technology to achieve systemic bioavailability of macromolecules (e.g. monoclonal antibodies) following transdermal delivery. […] The depletion over time for the two patches is shown in FIG. 29 for 0, 1, 7, 14 and 21 days.

[1] = FTIR spectroscopy of drug encapsulated in resin microneedles (changes during fabrication); format: physicochemical; conditions: drug encapsulated in cured resin microneedle vs powder
Source text: FTIR spectroscopy was used to evaluate possible changes in the encapsulated drugs during the fabrication process. A Nicolet 6700 (ThermoScientific™; Waltham, MA, USA) with a Smart™ iTX ATR accessory having a diamond crystal was used. […] In FTIR, an increase in the peak intensity usually reflects an increase in the amount (per unit volume) of the functional group associated with the molecular bond, whereas a shift in peak position usually reflects a change in the hybridization state or electron distribution in the molecular bond. […] The peaks at 1721 cm^−1 and 3400 cm^−1 are assigned to the stretching vibrations of C═O and O—H, respectively.

[2] = In vitro dye release from dye-loaded microneedle patch into parafilm-covered gelatin; format: physicochemical; conditions: 10% gelatin covered with parafilm
Protocol: In order to show in vitro release of the microneedles visually, a resin/dye paste was prepared. A biocompatible resin (Dental SG) from Formlabs (Somerville, MA, USA) and sulforhodamine B (SKU: 230162-5G, MilliporeSigma; Burlington, MA, USA) as dye were used. Due to the small size of the microneedles, the dye particles were ground into finer particles with smaller sizes. The encapsulation of unground and ground dye in microneedles was compared by preparing microneedles with both unground and ground sulforhodamine B particles. The unground and ground particles of the dye are shown in FIGS. 35a and 35b, respectively, and the size distribution of the unground and ground dye is shown in FIG. 35c. On average, the unground and ground dye particles had particle sizes of about 50 micrometers and 6 micrometers, respectively. […] A solid acrylic ring was added around the substrate so that the microneedle patch could be held and applied easily (see FIG. 35g). The in vitro dye release experiment is shown schematically in FIG. 35h. A 10% gelatin (gelatin from porcine skin, SKU: G2500-1KG from Millipore Sigma) solution was prepared as a model tissue and was poured in a petri dish. Then, it was placed in the refrigerator for 20 minutes to further solidify. A thin layer of parafilm (Parafilm ° M, Amcor; Zurich, Switzerland) was then used as a skin model to cover the gelatin solution in the petri dish.

Question: Which results are given for Rituximab?
Answer: activity of RTX after completion of the microneedle patch manufacturing process (CD20+ cells): preserved; B-cell depletion in blood (circulating B cells): most significant B-cell depletion

Question: With `CC(C)Cc1ccc(C(C)C(=O)[O-])cc1.[Na+]` (centres unmarked) [ibuprofen, ibuprofen sodium salt] as the compound, how does the “chemical structure during the fabrication process (FTIR)” value [1] read?
Answer: remained unchanged

Question: For `CCN(CC)CC(=O)Nc1c(C)cccc1C` [lidocaine, lidocaine hydrochloride monohydrate], which “chemical structure during the fabrication process (FTIR)” value [1] is on record?
Answer: remained unchanged

Question: With `CCN(CC)c1ccc2c(-c3ccc(S(=O)(=O)O)cc3S(=O)(=O)[O-])c3ccc(=[N+](CC)CC)cc-3oc2c1` [sulforhodamine B] as the compound, how does the “release of the dye into the gelatin solution” value [2] read?
Answer: visible release
